pIC50: −log10 of the molar value.
How the values were obtained:
Ba/F3-EGFR-VIII cells = Ba/F3-EGFR-VIII cells (Homo sapiens, UniProt P00533, DELINS30-297G, cells depend on it); assay: Inhibition of cell proliferation, CTG method, Ba/F3-EGFR-VIII; type: cell-based; settings: 72 hours, read-out: Ba/F3 EGFRvIII IC50
Text: (§1) The present application examined the in vitro anti-proliferative activity of the compounds of the present disclosure against in vitro cultured HCC-827, Ba/F3-EGFR-VIII and Ba/F3 EGFR D770_N771insSVD cell lines by CTG method.
(§2) Reagents and consumables: RPMI1640 (ThermoFisher, Cat. No. C11875500BT); DMEM (ThermoFisher, C11995500BT); fetal bovine serum (Hyclone, Cat. No. SV30087.03); 0.25% trypsin-EDTA (ThermoFisher, Cat. No. 25200072); penicillin-streptomycin (Hyclone, Cat. No. SV30010); DMSO (Life Science, Cat. No. 0231-500ML); CTG assay kit (Promega, Cat. No. G9243); 96-well plate (Corning, Cat. No. 3599); multifunctional plate reader (Perkin Elmer, Cat. No. Envision)
(§3) Cell lines: HCC-827 (from ATCC), Ba/F3-EGFR-VIII and Ba/F3 EGFR D770_N771insSVD (all from KYinno Biotechnology (Beijing) Co., Ltd.); all of the above cells were cultured with RPMI1640 medium containing 10% fetal bovine serum, 100 U/mL penicillin, and 100 μg/mL streptomycin in the culture process, and HCC-827 was cultured with DMEM medium containing 10% fetal bovine serum, 100 U/mL penicillin, and 100 μg/mL streptomycin.
(§4) • 1. The assay compound was dissolved with DMSO to form a stock solution and a gradient dilution was performed, followed by dilution with the corresponding medium to obtain a solution with 5-fold working concentration. • 2. Cells in logarithmic growth phase were adjusted to specific cell densities by dilution with culture medium, and 80 μL of cell suspension was added to a 96-well plate, such that plating densities of cells of HCC-827, Ba/F3-EGFR-VIII and Ba/F3 EGFR D770_N771insSVD were all 3000 cells/well. The cells of Ba/F3-EGFR-VIII and Ba/F3 EGFR D770_N771insSVD were used directly in the next step (treatment with compound), whereas the HCC-827 needed to be cultured overnight in a 37° C., 5% carbon dioxide gas incubator to adhere to the wall, and then treated with compounds. • 3. 20 μL of compound solution was added to each well of the 96-well plate that had been inoculated with cells. The highest concentration of the assayed compound was 10 μM, 4-fold serial dilution, a total of 9 concentrations, and duplicate wells. A control group without compound was also set up. • 4. The cells were cultured for another 72 hours, and then cell viability was detected by CTG assay kit. Signal values were read with a multifunctional plate reader (Perkin Elmer). GraphPad Prism software was used to create a dose-response curve and IC50 was calculated.

EGFR^WT kinase = molecular target: T1, EGFR^WT kinase (Homo sapiens, UniProt P00533); assay: EGFR^WT kinase assay (ULight peptide / Eu-PT66 antibody detection); type: biochemical
T1 construct: purchased Carna Biosciences 08-115
T1 sequence (P00533 25-1210): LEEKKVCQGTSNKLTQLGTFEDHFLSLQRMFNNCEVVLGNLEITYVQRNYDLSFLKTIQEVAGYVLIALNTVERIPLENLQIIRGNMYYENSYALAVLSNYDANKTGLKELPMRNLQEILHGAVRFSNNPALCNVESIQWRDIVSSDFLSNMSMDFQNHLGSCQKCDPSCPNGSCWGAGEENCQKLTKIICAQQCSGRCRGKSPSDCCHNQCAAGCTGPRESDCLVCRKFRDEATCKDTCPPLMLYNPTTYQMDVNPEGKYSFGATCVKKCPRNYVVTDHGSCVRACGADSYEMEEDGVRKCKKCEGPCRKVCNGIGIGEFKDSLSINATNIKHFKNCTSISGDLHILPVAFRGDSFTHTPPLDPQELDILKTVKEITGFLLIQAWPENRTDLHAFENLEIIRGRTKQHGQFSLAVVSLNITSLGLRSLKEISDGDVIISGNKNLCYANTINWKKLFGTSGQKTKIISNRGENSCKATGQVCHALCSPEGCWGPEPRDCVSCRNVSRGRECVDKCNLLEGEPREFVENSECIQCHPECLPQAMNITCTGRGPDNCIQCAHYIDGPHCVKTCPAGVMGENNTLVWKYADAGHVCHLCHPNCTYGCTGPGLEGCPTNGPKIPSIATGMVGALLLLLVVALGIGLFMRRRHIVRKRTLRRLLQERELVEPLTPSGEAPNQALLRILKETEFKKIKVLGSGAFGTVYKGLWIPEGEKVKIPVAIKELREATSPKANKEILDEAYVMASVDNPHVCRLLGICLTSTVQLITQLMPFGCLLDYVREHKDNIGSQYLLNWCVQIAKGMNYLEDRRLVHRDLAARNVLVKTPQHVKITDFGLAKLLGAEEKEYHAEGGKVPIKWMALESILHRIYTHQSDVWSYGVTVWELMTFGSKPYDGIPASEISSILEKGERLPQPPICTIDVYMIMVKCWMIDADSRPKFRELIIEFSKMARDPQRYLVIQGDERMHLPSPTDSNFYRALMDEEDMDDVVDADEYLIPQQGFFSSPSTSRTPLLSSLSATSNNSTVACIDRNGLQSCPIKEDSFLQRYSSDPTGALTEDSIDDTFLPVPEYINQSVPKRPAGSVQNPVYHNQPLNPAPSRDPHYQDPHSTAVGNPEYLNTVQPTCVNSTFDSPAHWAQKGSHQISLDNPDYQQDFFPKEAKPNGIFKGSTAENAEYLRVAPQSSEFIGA
Text: (§5) Reagents and consumables: ULight™-labeled Ploy GT Peptide (Perkin Elmer, Cat. No. TRF-0100-M); ULight™-labeled JAK-1 (Try1023) Peptide (Perkin Elmer, Cat. No. TRF-0121-M); Eu-W1024-labeled Anti-Phosphotyrosine Antibody (PT66) (Perkin Elmer, Cat. No. AD0068); 10×Detection Buffer (Perkin Elmer, Cat. No. CR97-100); HER2 Kinase (Carna Biosciences, Cat. No. 08-016); EGFR kinase (Carna Biosciences, Cat. No. 08-115); HEPES (GIBCO, Cat. No. 15630-080); EGTA (Sigma, Cat. No. 03777-10G); EDTA (Sigma, Cat. No. EDS-100G); MgCl2 (Sigma, Cat. No. 63069-100ML); DTT (Sigma, Cat. No. 43816-10ML); Tween-20 (Sigma, Cat. No. P7949-100ML); DMSO (Life Science, Cat. No. 0231-500ML); 384-well plates (Perkin Elmer, Cat. No. 607290); multifunctional plate reader (Perkin Elmer, Cat. No. Envision)
(§6) Preparation of compound solution: The assay compound was dissolved in DMSO to form a 10 mM stock solution. Prior to use, the compound was diluted to 0.25 mM in DMSO (100 times the final concentration of the diluent) and then subjected to a 3-fold concentration gradient dilution to obtain a total of 11 concentrations. The solution was diluted with buffer to a diluent with 4× the final concentration when the drug was added.
(§7) EGFR^WT kinase assay: buffer was prepared, and 3.48 nM 4× EGFR kinase solution, 600 μM 4× ATP solution, and 400 nM 4×ULight™-labeled JAK-1 (Try1023) Peptide substrate solution was prepared using the buffer. After the preparation was completed, the enzyme was mixed with different concentrations of compounds pre-prepared by dilution, and the mixture was left to stand at room temperature for 5 min. Each concentration was performed in duplicate. The corresponding substrate and ATP were added and the mixture was reacted at room temperature for 120 minutes (with negative and positive controls). After completion of the reaction, PT66 detection antibody was added. The mixture was incubated at room temperature for 60 minutes, and then detected by Envision.
(§8) Data Calculation: the reading of well and inhibition rate were calculated using Excel, wherein reading of well=10000*(well EU665 value)/(well EU615 value), and inhibition rate=[(reading of positive control well−reading of assay well)/(reading of positive control well−reading of negative control well)]*100%. Compound concentrations and corresponding inhibition rates were input into GraphPad Prism for processing to calculate IC50 values.

HER2 kinase = molecular target: T2, HER2 kinase (Homo sapiens, UniProt P04626); assay: HER2 kinase assay (ULight peptide / Eu-PT66 antibody detection); type: biochemical
T2 construct: purchased Carna Biosciences 08-016
T2 sequence (P04626 23-1255): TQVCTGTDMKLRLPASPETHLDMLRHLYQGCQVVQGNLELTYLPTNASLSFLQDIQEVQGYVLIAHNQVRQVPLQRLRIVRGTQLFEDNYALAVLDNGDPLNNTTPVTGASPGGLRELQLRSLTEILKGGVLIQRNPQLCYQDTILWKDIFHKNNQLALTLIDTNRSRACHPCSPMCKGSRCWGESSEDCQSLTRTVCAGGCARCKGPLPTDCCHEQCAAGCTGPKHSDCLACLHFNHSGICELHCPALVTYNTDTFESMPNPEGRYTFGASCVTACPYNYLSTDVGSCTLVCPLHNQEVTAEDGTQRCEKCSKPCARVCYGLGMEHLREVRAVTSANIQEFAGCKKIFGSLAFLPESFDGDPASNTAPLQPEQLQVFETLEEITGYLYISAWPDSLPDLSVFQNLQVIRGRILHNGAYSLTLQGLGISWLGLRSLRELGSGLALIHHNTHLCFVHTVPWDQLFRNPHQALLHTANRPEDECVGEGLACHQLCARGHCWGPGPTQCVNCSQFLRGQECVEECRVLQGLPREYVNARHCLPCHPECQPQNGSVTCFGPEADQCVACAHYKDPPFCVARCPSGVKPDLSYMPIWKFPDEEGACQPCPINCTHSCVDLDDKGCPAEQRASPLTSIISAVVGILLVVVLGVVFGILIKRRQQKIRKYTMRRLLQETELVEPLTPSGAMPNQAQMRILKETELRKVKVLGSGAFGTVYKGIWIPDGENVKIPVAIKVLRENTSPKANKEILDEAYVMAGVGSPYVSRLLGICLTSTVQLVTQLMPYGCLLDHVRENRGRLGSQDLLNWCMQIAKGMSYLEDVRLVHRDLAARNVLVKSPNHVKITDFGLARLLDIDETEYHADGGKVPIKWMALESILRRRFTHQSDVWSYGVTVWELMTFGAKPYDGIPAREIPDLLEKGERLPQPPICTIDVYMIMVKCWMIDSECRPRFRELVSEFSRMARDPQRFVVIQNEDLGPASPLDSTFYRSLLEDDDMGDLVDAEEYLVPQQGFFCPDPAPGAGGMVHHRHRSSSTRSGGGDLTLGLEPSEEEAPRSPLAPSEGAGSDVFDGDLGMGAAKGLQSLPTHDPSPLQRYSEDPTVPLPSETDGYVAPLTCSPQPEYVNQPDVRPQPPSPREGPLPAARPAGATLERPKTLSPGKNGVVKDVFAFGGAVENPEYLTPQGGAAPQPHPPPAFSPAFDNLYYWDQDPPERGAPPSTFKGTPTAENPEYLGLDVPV
Text: as §5, §6
as §7, with “HER2 kinase” for “EGFR^WT kinase”, “and 40” for “and 3.48”, “4× HER2” for “4× EGFR”, “solution, 40” for “solution, 600”, “4×ULight™-labeled Ploy GT” for “4×ULight™-labeled JAK-1 (Try1023)”, “solution were” for “solution was”
as §8

[1] = molecular target: Ba/F3 EGFR D770_N771insSVD cells (Homo sapiens, UniProt P00533, DUP768-770, cells depend on it); assay: Inhibition of cell proliferation, CTG method, Ba/F3 EGFR D770_N771insSVD; type: cell-based; settings: 72 hours, read-out: Ba/F3 EGFR D770_N771insSVD IC50
Chain of Ba/F3 EGFR D770_N771insSVD cells (P00533 with tags, fused parts or gaps DUP768-770): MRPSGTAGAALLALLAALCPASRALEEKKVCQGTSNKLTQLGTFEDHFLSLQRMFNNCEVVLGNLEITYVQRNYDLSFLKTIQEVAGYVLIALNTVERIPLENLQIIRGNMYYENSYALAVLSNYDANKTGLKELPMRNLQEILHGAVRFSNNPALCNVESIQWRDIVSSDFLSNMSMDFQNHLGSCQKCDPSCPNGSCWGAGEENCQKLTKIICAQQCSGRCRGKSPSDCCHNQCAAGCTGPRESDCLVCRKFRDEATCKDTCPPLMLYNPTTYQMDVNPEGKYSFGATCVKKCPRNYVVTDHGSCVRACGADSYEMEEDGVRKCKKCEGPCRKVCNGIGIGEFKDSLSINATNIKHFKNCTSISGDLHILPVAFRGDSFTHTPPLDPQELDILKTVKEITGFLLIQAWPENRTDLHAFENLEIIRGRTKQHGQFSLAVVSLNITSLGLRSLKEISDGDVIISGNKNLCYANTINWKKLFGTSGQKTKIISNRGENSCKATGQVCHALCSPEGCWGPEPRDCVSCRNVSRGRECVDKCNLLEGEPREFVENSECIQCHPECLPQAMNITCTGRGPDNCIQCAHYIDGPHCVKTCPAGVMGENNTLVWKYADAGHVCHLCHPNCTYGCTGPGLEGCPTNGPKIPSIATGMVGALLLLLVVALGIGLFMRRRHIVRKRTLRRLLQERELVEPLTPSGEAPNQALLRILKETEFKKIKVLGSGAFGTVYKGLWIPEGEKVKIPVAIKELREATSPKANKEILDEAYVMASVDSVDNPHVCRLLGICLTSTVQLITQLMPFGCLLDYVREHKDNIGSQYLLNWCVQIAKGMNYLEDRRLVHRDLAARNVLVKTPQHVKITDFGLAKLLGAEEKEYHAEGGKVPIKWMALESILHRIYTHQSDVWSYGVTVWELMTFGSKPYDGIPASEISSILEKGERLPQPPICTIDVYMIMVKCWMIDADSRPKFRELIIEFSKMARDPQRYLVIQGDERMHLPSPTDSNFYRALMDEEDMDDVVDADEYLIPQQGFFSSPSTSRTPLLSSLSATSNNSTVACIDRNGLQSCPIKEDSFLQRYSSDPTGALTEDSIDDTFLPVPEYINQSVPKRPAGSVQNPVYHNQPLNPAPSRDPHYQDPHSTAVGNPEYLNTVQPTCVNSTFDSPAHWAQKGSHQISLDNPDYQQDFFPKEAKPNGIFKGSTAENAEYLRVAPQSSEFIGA
Text: as §1, §2, §3, §4

HCC-827 cells = assay: Inhibition of cell proliferation, CTG method, HCC-827; type: cell-based; settings: Homo sapiens, HCC827, 72 hours
Text: as §1, §2, §3, §4

Chain of Ba/F3-EGFR-VIII cells (P00533 with tags, fused parts or gaps DELINS30-297G): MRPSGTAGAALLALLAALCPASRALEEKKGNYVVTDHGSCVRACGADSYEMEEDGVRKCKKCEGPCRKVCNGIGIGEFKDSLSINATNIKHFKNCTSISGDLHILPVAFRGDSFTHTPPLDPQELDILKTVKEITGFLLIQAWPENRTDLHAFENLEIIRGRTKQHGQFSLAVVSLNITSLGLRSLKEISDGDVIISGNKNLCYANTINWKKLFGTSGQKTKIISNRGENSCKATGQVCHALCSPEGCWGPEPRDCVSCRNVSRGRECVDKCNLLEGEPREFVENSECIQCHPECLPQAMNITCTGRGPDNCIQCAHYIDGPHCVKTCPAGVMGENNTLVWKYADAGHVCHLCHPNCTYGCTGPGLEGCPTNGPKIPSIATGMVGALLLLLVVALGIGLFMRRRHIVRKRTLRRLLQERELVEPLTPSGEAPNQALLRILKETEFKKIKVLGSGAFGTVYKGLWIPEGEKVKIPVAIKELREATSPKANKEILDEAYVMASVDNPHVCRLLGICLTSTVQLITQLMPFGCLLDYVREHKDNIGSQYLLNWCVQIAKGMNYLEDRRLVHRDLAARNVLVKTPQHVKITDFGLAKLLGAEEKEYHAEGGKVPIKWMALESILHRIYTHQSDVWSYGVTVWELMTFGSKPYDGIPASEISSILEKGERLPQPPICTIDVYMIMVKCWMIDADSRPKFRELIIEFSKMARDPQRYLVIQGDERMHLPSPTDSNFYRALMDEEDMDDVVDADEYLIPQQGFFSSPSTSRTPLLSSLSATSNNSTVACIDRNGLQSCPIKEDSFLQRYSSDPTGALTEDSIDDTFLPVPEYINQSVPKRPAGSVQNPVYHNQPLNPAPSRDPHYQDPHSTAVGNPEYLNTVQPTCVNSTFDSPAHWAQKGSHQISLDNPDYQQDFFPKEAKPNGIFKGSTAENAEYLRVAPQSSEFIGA

SMILES | GI50 (Ba/F3-EGFR-VIII cells) | pIC50 (EGFR^WT kinase) | pIC50 (HER2 kinase) | GI50 [1] | pIC50 (HCC-827 cells)
COCCOc1c(NC(=O)/C=C/CN(C)C)ccc2ncnc(Nc3cccc(Cl)c3F)c12 [Example 3, (E)-N-(4-((3-chloro-2-fluorophenyl)amino)-5-(2-methoxyethoxy)quinazolin-6-yl)-4-(dimethylamino)but-2-enamide] | ≤ 5 nM | ≥ 9.00 | 7.00 to 8.00 | 50 to 500 nM | ≥ 8.30
CN(C)C/C=C/C(=O)Nc1ccc2ncnc(Nc3cccc(Cl)c3F)c2c1OCCO [Example 5, (E)-N-(4-((3-chloro-2-fluorophenyl)amino)-5-(2-hydroxyethoxy)quinazolin-6-yl)-4-(dimethylamino)but-2-enamide] | ≤ 5 nM | ≥ 9.00 | 7.00 to 8.00 | 5 to 50 nM | ≥ 8.30
CN(C)C/C=C/C(=O)Nc1ccc2ncnc(Nc3cccc(Cl)c3F)c2c1OCCF [Example 4, (E)-N-(4-((3-chloro-2-fluorophenyl)amino)-5-(2-fluoroethoxy)quinazolin-6-yl)-4-(dimethylamino)but-2-enamide] | 5 to 50 nM | ≥ 9.00 | 7.00 to 8.00 | 50 to 500 nM | ≥ 8.30
COc1c(NC(=O)/C=C/CN(C)C(C)C)ccc2ncnc(Nc3cccc(Cl)c3F)c12 [Example 8, (E)-N-(4-((3-chloro-2-fluorophenyl)amino)-5-methoxyquinazolin-6-yl)-4-(isopropyl(methyl)amino)but-2-enamide] | 5 to 50 nM | ≥ 9.00 | 7.00 to 8.00 | 50 to 500 nM | ≥ 8.30
CN(C)C/C=C/C(=O)Nc1ccc2ncnc(Nc3cccc(Cl)c3F)c2c1OCCCO [Example 11, (E)-N-(4-((3-chloro-2-fluorophenyl)amino)-5-(3-hydroxypropoxy)quinazolin-6-yl)-4-(dimethylamino)but-2-enamide] | ≤ 5 nM | ≥ 9.00 | 6.00 to 7.00 | 50 to 500 nM | ≥ 8.30
COCCCOc1c(NC(=O)/C=C/CN(C)C)ccc2ncnc(Nc3cccc(Cl)c3F)c12 [Example 6, (E)-N-(4-((3-chloro-2-fluorophenyl)amino)-5-(3-methoxypropoxy)quinazolin-6-yl)-4-(dimethylamino)but-2-enamide] | 5 to 50 nM | ≥ 9.00 | 6.00 to 7.00 | 50 to 500 nM | ≥ 8.30
CN(C)C/C=C/C(=O)Nc1ccc2ncnc(Nc3cccc(Cl)c3F)c2c1OCC(F)F [Example 17, (E)-N-(4-((3-chloro-2-fluorophenyl)amino)-5-(2,2-difluoroethoxy)quinazolin-6-yl)-4-(dimethylamino)but-2-enamide] | 5 to 50 nM | ≥ 9.00 | 6.00 to 7.00 | 50 to 500 nM | ≥ 8.30
CC(C)Oc1c(NC(=O)/C=C/CN(C)C)ccc2ncnc(Nc3cccc(Cl)c3F)c12 [Example 10, (E)-N-(4-((3-chloro-2-fluorophenyl)amino)-5-isopropoxyquinazolin-6-yl)-4-(dimethylamino)but-2-enamide] | 50 to 500 nM | 8.00 to 9.00 | 6.00 to 7.00 | 50 to 500 nM | 7.30 to 8.30
CN(C)C/C=C/C(=O)Nc1ccc2ncnc(Nc3cccc(Cl)c3F)c2c1OCCC(C)(C)O [Example 14, (E)-N-(4-((3-chloro-2-fluorophenyl)amino)-5-(3-hydroxy-3-methylbutoxy)quinazolin-6-yl)-4-(dimethylamino)but-2-enamide] | 5 to 50 nM | 8.00 to 9.00 | 7.00 to 8.00 | 50 to 500 nM | ≥ 8.30

Reference: US20240400521A1, “QUINAZOLINE COMPOUND, COMPOSITION, AND APPLICATION THEREOF” (BEIJING SCITECH-MQ PHARMACEUTICALS LIMITED, priority 2021, published 2024)
